Here are results for 5 compounds from ChEMBL document CHEMBL1201862, “PubChem BioAssay data set” (2004).

Calls of active or inactive are those of the source.

One experiment deals with T-cell. Kind of experiment: loss of vesicle association with mouse CD8+ T cells – mouse 2C CD8+ T cells, flow cytometry, dose response (AID 485284). It counts as functional.
In experiment [1] the test system is HEK293. Kind of experiment: cells. The following applies: Homo sapiens.
Experiment [2] addresses Nucleotide-binding oligomerization domain-containing protein 1 (Homo sapiens, UniProt Q9Y239). Briefly: blockers of NOD1 pathway activity – revised, SAR follow-up (AID 2333). In kind it is functional.
Experiment [3] concerns HEK293. Kind of experiment: cells. In kind it is functional, cell-based. As to conditions: Homo sapiens.
The test system of experiment [4] is HEK293. Kind of experiment: cells. In kind it is functional, cell-based. As to conditions: Homo sapiens. The source holds these as a separate data set.
Experiment [5] relates to HEK293. Briefly: cells. It counts as functional, cell-based. The following applies: Homo sapiens. This is another data set of the same source.
The target in the next experiment is Tumor necrosis factor (Homo sapiens, UniProt P01375). Briefly: analog potency on TNFa NF-kB signaling – cell-based, revised, SAR follow-up (AID 2337). In kind it is functional.
Experiment [6] deals with T1, Nucleotide-binding oligomerization domain-containing protein 2 (Homo sapiens, UniProt Q9HC29). Briefly: PubChem AID 2334. In kind it is functional.
For experiment [7], the system named is HEK293. Kind of experiment: inhibition of NOD1-driven NF-kB reporter – cell-based, luminescence, uHTS, primary screen (AID 1578). It counts as functional. The following applies: Homo sapiens.
The target of experiment [8] is T1, Nucleotide-binding oligomerization domain-containing protein 2. Briefly: inhibition of NOD2-driven NF-kB reporter – cell-based, luminescence, uHTS, HEK293 (AID 1566). It counts as functional.
Experiment [9] relates to HEK293. Briefly: NOD2 signaling inhibitors in MDP-stimulated cells, cell-based, uHTS, luminescence (AID 2001). It counts as functional. As to conditions: Homo sapiens.
The nature of experiment [10]: A Cell Based Assay for the Identification of Probe candidate Compounds with Anti- Venezuelan Equine Encephalitis virus. [Related pubchem assays: 2409, 2419, 1621, 2238, 2405, 2024, 2065, 2402, 2414, 1635, 1650, 2244 ]. In kind it is functional.
Experiment [11] relates to Vero. Briefly: antiviral protection of cells from WNV – synthesized analogs, SAR follow-up (AID 2238). In kind it is functional, cell-based. The following applies: Chlorocebus sabaeus.
In experiment [12] the test system is Vero. Briefly: Vero 76 cell viability after compound exposure – Vero 76 cells, synthesized analogs, cytotoxicity control for West Nile virus antiviral project, SAR follow-up (AID 2414). It counts as functional. As to conditions: Chlorocebus sabaeus.
In experiment [13] the test system is Vero. Kind of experiment: host cell viability loss, Vero E6 – synthesized analogs, cytotoxicity control for West Nile virus antiviral project, SAR follow-up (AID 2244). It counts as functional. The following applies: Chlorocebus sabaeus.
In experiment [14] the target is T2, Ubiquitin-conjugating enzyme E2 N (Homo sapiens, UniProt P61088).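 Note: Dose-response confirmation in a TR-FRET assay detecting UBC13-driven polyubiquitin chain formation, inhibition measured.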
T2 sequence (P61088 whole entry): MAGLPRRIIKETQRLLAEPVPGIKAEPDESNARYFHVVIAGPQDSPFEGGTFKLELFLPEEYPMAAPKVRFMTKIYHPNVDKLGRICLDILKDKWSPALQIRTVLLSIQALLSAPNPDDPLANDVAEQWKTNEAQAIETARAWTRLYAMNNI
In kind it is functional.

Experiment [15] deals with Vero. Kind of experiment: Vero cell viability after compound exposure – synthesized analogs, set II, cytotoxicity control for West Nile virus antiviral project, SAR follow-up (AID 2402). The following applies: Chlorocebus sabaeus. In kind it is functional.
The target in experiment [16] is DNA dC->dU-editing enzyme APOBEC-3G (Homo sapiens, UniProt Q9HC16). In kind it is functional.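 Note: Dose-response counterscreen measuring inhibition of APOBEC3G DNA deaminase activity, run while confirming APOBEC3A inhibitors.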
Experiment [17] has as its target DNA dC->dU-editing enzyme APOBEC-3A (Homo sapiens, UniProt P31941). Kind of experiment: Dose Response confirmation of small molecule APOBEC3A DNA Deaminase Inhibitors via a fluorescence-based single-stranded DNA deaminase assay. [Related pubchem assays (depositor defined):AID493011, AID493024]. It counts as functional.
A further experiment addresses Troponin, cardiac muscle (Homo sapiens, UniProt P19429+P45379+P63316). Kind of experiment: Fluorescence-based biochemical high throughput dose response assay for activators of the calcium sensitivity of cardiac Regulated Thin Filaments (RTF). [Related pubchem assays (depositor defined):AID493008, AID493018, AID504382, AID504383]. It counts as protein-complex assay.

For experiment [18], the target named is T3, High affinity choline transporter 1 (Homo sapiens, UniProt Q9GZV3).
T3 sequence (Q9GZV3 whole entry): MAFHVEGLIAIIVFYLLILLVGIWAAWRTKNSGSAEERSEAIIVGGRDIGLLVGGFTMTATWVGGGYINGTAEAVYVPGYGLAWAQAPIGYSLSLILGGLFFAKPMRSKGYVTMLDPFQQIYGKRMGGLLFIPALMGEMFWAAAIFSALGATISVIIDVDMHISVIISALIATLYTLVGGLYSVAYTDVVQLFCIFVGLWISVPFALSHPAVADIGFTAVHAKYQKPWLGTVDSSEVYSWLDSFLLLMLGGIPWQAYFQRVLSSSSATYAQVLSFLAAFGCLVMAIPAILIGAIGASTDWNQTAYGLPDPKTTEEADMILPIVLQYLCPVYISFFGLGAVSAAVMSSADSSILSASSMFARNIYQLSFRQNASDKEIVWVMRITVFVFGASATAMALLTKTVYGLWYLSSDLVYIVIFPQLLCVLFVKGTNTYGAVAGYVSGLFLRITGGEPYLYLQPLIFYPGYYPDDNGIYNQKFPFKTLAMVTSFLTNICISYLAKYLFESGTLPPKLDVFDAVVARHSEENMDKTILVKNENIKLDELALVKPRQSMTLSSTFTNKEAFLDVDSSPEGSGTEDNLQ
Kind of experiment: human choline transporter blockers, potency – cell-based, 5-point CRC, membrane potential dye, dose response (AID 504840). In kind it is functional.

The target in experiment [19] is T3, High affinity choline transporter 1. Briefly: human choline transporter blockers, potency – cell-based, 10-point CRC, membrane potential dye, dose response (AID 588401).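 Note: membrane potential dye fluorescence of choline-evoked depolarization via CHT.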 In kind it is functional.
In experiment [20] the target is T4, Short transient receptor potential channel 4 (Mus musculus, UniProt Q9QUQ5).
T4 sequence (Q9QUQ5 whole entry): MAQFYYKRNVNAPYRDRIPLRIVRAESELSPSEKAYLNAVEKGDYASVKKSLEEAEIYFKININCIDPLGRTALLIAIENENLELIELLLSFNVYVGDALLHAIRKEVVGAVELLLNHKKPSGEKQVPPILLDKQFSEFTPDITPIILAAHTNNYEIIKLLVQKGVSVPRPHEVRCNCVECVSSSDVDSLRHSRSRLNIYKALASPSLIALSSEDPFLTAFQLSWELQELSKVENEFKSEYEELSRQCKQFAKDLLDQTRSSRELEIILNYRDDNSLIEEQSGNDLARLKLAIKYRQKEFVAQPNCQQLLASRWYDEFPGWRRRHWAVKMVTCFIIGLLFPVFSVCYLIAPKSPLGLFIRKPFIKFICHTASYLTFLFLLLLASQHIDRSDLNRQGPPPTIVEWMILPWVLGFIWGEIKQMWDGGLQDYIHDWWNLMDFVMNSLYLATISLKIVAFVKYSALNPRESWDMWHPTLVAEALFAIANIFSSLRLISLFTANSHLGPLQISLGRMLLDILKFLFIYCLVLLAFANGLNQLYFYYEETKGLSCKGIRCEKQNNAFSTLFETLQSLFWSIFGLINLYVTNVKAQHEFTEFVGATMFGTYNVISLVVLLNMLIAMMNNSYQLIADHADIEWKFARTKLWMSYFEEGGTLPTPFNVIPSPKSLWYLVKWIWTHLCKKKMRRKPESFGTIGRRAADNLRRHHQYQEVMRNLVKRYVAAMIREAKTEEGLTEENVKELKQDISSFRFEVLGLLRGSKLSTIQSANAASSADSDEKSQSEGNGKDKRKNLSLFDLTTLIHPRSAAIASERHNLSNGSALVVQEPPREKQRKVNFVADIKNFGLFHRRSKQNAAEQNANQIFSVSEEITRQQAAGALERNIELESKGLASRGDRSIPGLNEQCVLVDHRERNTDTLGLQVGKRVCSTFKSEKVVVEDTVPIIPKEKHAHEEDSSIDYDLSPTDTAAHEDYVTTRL
Kind of experiment: calcium entry via TRPC4 opening agents – cell-based, HEK293 TRPC4/mu-opioid, Fluo-4 calcium, dose response (AID 434937). It counts as functional.

As for `CCC(C(=O)Nc1ccccc1)c1ccccc1` (stereo not drawn), the concentration for a half-maximal effect (EC50) (usually the concentration giving half of the maximal effect) with T-cell was 0.0882 µM (active).

With `Cc1cc(Cl)ccc1OCC(=O)Nc1ccccc1NS(=O)(=O)c1cccs1`, the IC50 (usually the midpoint of a concentration-inhibition curve) is > 20 µM (inactive) with HEK293 [1]; 4.55 µM (active) in [2]; > 20 µM (inactive) in the experiment with HEK293 [3]; > 20 µM (inactive) with HEK293 [4]; > 20 µM (inactive) with HEK293 [5]; 12.3 µM (active) on Tumor necrosis factor. Also, the figures for the IC50 (in experiment [6]; in the experiment on HEK293 [9]) were 8.21 µM (active) and 15.8 µM (inactive), respectively. The concentration giving a half-maximal response (EC50) in the experiment on HEK293 [7] is 5.15 µM (active); in experiment [8], 6.8 µM (active).

As to `CC1CC(C)CN(CCCNC(=O)c2cc3c(s2)-c2ccccc2OC3)C1` (stereo not drawn), the IC50 in experiment [10] is 15.5 µM (active); with Vero [11], > 40 µM (active); in experiment [14], > 20 µM (inactive). The half-maximal cytotoxic concentration (CC50) (in general, the concentration at which the toxic effect on the cells reaches its halfway point) with Vero [12] is 29.4 µM (active); in the experiment with Vero [13] it was 12.4 µM (active); with Vero [15], 11.2 µM (active).

As to `CC(Oc1ccc(Br)cc1)C(=O)Nc1cc(Cl)ccc1N1CCN(C)CC1` (stereo not drawn), the results for the IC50 in experiment [16] and in experiment [17] were 4.26 µM (active) and 3.15 µM (active), respectively.

Turning to `CC(=O)OCC[N+](C)(C)C` [ACETYLCHOLINE CHLORIDE], the EC50 at Troponin, cardiac muscle was > 71.4 µM (inactive); in experiment [20] it was 0.421 µM (active). Also, the IC50 in experiment [18] was 6.26 µM (active); in [19] it was 0.566 µM (active).
